This passage reports Kd and EC50 results from patent publication US12643912B2, “Macrocyclic compounds, a process for their preparation and pharmaceutical compositions containing them” (LES LABORATOIRES SERVIER, priority 2020, dated 2026).

Like-named read-outs stand apart in the source and are kept apart here.

One assay has as its target T1, Keap1 (A321-C624) (h) (Homo sapiens, UniProt Q14145).
T1 construct: His-Thromb-KEAP1(A321-C624) acquired from Novalix (batch PU-P01) was immobilized covalently by amine coupling; His tag (N); thrombin cleavage site (Thromb) (N); purchased Novalix batch PU-P01
Description: Surface Plasmon Resonance binding assay to Kelch domain of KEAP1. Conditions: Biacore T200, 25° C., immobilized His-Thromb-KEAP1(A321-C624), single cycle kinetics, KD=kd/ka from 1:1 fit; read-out: Keap1 (A321-C624) (h) direct/SPR (KD). The essentials: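 His-Thromb-KEAP1(A321-C624) amine-coupled on CM5 chip to 1250 RU; amine blank reference. Run at 25° C in HEPES pH 7.4, 150 mM NaCl, 3 mM EDTA, 1 mM TCEP, 0.05% P20, 5% DMSO; 180 s association, 720 s dissociation, 50 μL/min. KD = kd/ka from 1:1 kinetic fit, double-referenced, DMSO solvent-corrected.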
In general terms: SPR reads the build-up and loss of mass on a sensor chip optically.

Assay [1] relates to Nrf2 (Keap1-NRF2 nuclear translocation). Kind of assay: U2OS translocation assay (PathHunter U2OS Keap1-NRF2 Nuclear Translocation Cell Line). The assay is classed as cell-based. A digest of the protocol:
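PathHunter U2OS line expressing Nrf2-enzyme-donor fusion and nuclear acceptor enzyme, 7 500 cells/well in Opti-MEM, 1% FBS. Compounds incubated 3 h at 37° C. Luminescence after 60 min with detection reagent, normalized between 1% DMSO and 10 μM andrographolide.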

[2] abbreviates: read-out: CELLULAR U2OS EC50, U2OS Keap1-NRF2 nuclear translocation cells, 3 h incubation, luminescence, normalized between 1% DMSO and 10 μM andrographolide.
Where [3] appears, read: Homo sapiens, U2OS, 3 h, read-out: CELLULAR U2OS EC50 (nM), U2OS Keap1-NRF2 nuclear translocation cells, 3 h incubation, luminescence, normalized between 1% DMSO and 10 μM andrographolide.

T1 sequence (Q14145 321-624): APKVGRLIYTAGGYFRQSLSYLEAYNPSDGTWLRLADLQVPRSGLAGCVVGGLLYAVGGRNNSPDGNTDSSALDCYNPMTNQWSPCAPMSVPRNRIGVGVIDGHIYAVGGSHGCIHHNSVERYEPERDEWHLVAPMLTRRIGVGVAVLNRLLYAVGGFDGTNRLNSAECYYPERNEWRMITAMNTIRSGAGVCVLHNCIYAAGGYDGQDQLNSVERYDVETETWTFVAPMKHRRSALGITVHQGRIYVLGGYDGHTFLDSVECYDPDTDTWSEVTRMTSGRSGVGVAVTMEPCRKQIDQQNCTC

Turning to `COc1ccc2cc1CN1Cc3cc(ccc3OS1(=O)=O)OCc1ccccc1SCCCCn1nnc3c(C)c(ccc31)C2CC(=O)O` (single isomer, unassigned) [Example 54b], at Keap1 (A321-C624) (h), the Kd came out at 391 nM. Also, the EC50 in assay [1] (setting [2]) came to 2270 nM.
For the molecule `Cc1ccc2cc1CN1Cc3cc(ccc3OS1(=O)=O)OCc1ccccc1OCCCn1nnc3c(C)c(ccc31)C2CC(=O)O` (single isomer, unassigned) [Example 57a, [4,38-Dimethyl-34,34-dioxo-20,28,33-trioxa-34λ^6-thia-1,14,15,16-tetraazaheptacyclo[27.5.3.1^3,70.1^9,130.0^12,160.0^21,260.0^32,36]nonatriaconta-3(39),4,6,9(38),10,12,14,21,23,25,29,31,36-tridecaen-8-yl]acetic acid], the Kd on Keap1 (A321-C624) (h) is 58.9 nM. The EC50 in assay [1] (setting [2]) amounted to 496 nM.
The matching figures for `Cc1ccc2cc1CN1Cc3cc(ccc3OS1(=O)=O)OCc1ccccc1OCCCn1nnc3c(C)c(ccc31)C2CC(=O)O` (single isomer, unassigned) [Example 57b, [4,38-Dimethyl-34,34-dioxo-20,28,33-trioxa-34λ^6-thia-1,14,15,16-tetraazaheptacyclo[27.5.3.1^3,70.1^9,130.0^12,160.0^21,260.0^32,36]nonatriaconta-3(39),4,6,9(38),10,12,14,21,23,25,29,31,36-tridecaen-8-yl]acetic acid]: 498 nM and 2820 nM.
For the molecule `Cc1ccc2cc1CN1Cc3cc(ccc3OS1(=O)=O)OCCN(c1ccccc1)CCn1nnc3c(C)c(ccc31)C2CC(=O)O` (single isomer, unassigned) [Example 58a, [4,32-Dimethyl-28,28-dioxo-19-phenyl-22,27-dioxa-28λ^6-thia-1,14,15,16,19-pentaazahexacyclo[21.5.3.1^3,70.1^9,130.0^12,160.0^26,30]tritriaconta-3(33),4,6,9(32),10,12,14,23,25,30-decaen-8-yl]acetic acid], the Kd at Keap1 (A321-C624) (h) was found to be 4.66 nM. In addition, the EC50 in assay [1] (setting [2]) was 90.4 nM.
The matching figures for `Cc1ccc2cc1CN1Cc3cc(ccc3OS1(=O)=O)OCCN(c1ccccc1)CCn1nnc3c(C)c(ccc31)C2CC(=O)O` (single isomer, unassigned) [Example 58b, [4,32-Dimethyl-28,28-dioxo-19-phenyl-22,27-dioxa-28λ^6-thia-1,14,15,16,19-pentaazahexacyclo[21.5.3.1^3,70.1^9,130.0^12,160.0^26,30]tritriaconta-3(33),4,6,9(32),10,12,14,23,25,30-decaen-8-yl]acetic acid]: 12.5 nM and 427 nM.
Regarding `COc1ccc2cc1CN1Cc3cc(ccc3OS1(=O)=O)OCCOCCn1nnc3c(C)c(ccc31)C2CC(=O)O` (single isomer, unassigned) [Example 59a, [4-Methoxy-32-methyl-28,28-dioxo-19,22,27-trioxa-28λ^6-thia-1,14,15,16-tetraazahexacyclo[21.5.3.1^3,70.1^9,130.0^12,160.0^26,30]tritriaconta-3(33),4,6,9(32),10,12,14,23,25,30-decaen-8-yl]acetic acid], the Kd at Keap1 (A321-C624) (h) stood at 5.07 nM. Besides, in assay [1] (setting [3]), the EC50 stood at 311 nM.
On to `Cc1ccc2cc1CN1Cc3cc(ccc3OS1(=O)=O)OCc1ccccc1CCn1nnc3c(C)c(ccc31)C2CC(=O)O` (single isomer, unassigned) [Example 62a, [4,36-Dimethyl-32,32-dioxo-26,31-dioxa-32λ^6-thia-1,14,15,16-tetraazaheptacyclo[25.5.3.1^3,70.1^9,130.0^12,160.0^19,240.0^30,34]heptatriaconta-3(37),4,6,9(36),10,12,14,19,21,23,27,29,34-tridecaen-8-yl]acetic acid], for which the Kd on Keap1 (A321-C624) (h) was 3 nM. The EC50 in assay [1] (setting [3]) is 177 nM.
The matching figures for `Cc1ccc2cc1CN1Cc3cc(ccc3OS1(=O)=O)OCCSCCn1nnc3c(C)c(ccc31)C2CC(=O)O` (single isomer, unassigned) [Example 63a, [4,32-Dimethyl-28,28-dioxo-22,27-dioxa-19,28λ^6-dithia-1,14,15,16-tetraazahexacyclo[21.5.3.1^3,70.1^9,130.0^12,160.0^26,30]tritriaconta-3(33),4,6,9(32),10,12,14,23,25,30-decaen-8-yl]acetic acid]: 4.39 nM and 57.1 nM.
Consider `Cc1ccc2cc1CN1Cc3c(ccc(c3Cl)OCCCCn3nnc4c(C)c(ccc43)C2CC(=O)O)OS1(=O)=O` (single isomer, unassigned) [Example 66a, [30-Chloro-4,31-dimethyl-27,27-dioxo-21,26-dioxa-27λ^6-thia-1,14,15,16-tetraazahexacyclo[20.5.3.1^3,70.1^9,130.0^12,160.0^25,29]dotriaconta-3(32),4,6,9(31),10,12,14,22,24,29-decaen-8-yl]acetic acid], for which the Kd at Keap1 (A321-C624) (h) worked out at 0.678 nM. Also, the EC50 in assay [1] (setting [2]) turned out to be 3.44 nM.
The matching figures for `Cc1ccc2cc1CN1Cc3c(ccc(c3Cl)OCCCCn3nnc4c(C)c(ccc43)C2CC(=O)O)OS1(=O)=O` (single isomer, unassigned) [Example 66b, [30-Chloro-4,31-dimethyl-27,27-dioxo-21,26-dioxa-27λ^6-thia-1,14,15,16-tetraazahexacyclo[20.5.3.1^3,70.1^9,130.0^12,160.0^25,29]dotriaconta-3(32),4,6,9(31),10,12,14,22,24,29-decaen-8-yl]acetic acid]: 0.833 nM and 17.9 nM.
Take `Cc1ccc2cc1CN1Cc3cc(ccc3OS1(=O)=O)Oc1ccccc1NCCCn1nnc3c(C)c(ccc31)C2CC(=O)O` (single isomer, unassigned) [Example 71a, [4,37-Dimethyl-33,33-dioxo-27,32-dioxa-33λ^6-thia-1,14,15,16,20-pentaazaheptacyclo[26.5.3.1^3,70.1^9,130.0^12,160.0^21,260.0^31,35]octatriaconta-3(38),4,6,9(37),10,12,14,21,23,25,28,30,35-tridecaen-8-yl]acetic acid]: the Kd at Keap1 (A321-C624) (h) amounted to 19.3 nM. In assay [1] (setting [3]), the EC50 was determined as 42 nM.
The matching figures for `Cc1ccc2cc1CN1Cc3cc(ccc3OS1(=O)=O)OCCCCn1cc(nn1)C(=O)NC2CC(=O)O` (single isomer, unassigned) [Example 72a, [4-Methyl-10,25,25-trioxo-19,24-dioxa-25λ^6-thia-1,9,12,13,14-pentaazapentacyclo[18.5.3.1^3,70.1^11,140.0^23,27]triaconta-3(30),4,6,11(29),12,20,22,27-octaen-8-yl]acetic acid]: 23.6 nM and greater than 3160 nM.
Turning to `Cc1ccc2cc1CN1Cc3cc(ccc3OS1(=O)=O)OCCCCn1cc(nn1)C(=O)NC2CC(=O)O` (single isomer, unassigned) [Example 72b, [4-Methyl-10,25,25-trioxo-19,24-dioxa-25λ^6-thia-1,9,12,13,14-pentaazapentacyclo[18.5.3.1^3,70.1^11,140.0^23,27]triaconta-3(30),4,6,11(29),12,20,22,27-octaen-8-yl]acetic acid], the Kd on Keap1 (A321-C624) (h) was determined as 730 nM. Besides, in assay [1] (setting [2]), the EC50 is greater than 3160 nM.
Regarding `Cc1ccc2cc1CN1Cc3cc(ccc3OS1(=O)=O)OCCCCCOc1cc(c(C)c3nnn(C)c13)C2CC(=O)O` (single isomer, unassigned) [Example 73a, [4,10,14-Trimethyl-29,29-dioxo-17,23,28-trioxa-29λ^6-thia-1,12,13,14-tetraazahexacyclo[22.5.3.1^3,70.1^9,160.0^11,150.0^27,31]tetratriaconta-3(34),4,6,9(33),10,12,15,24,26,31-decaen-8-yl]acetic acid], the Kd on Keap1 (A321-C624) (h) was found to be 6.23 nM. Moreover, the EC50 in assay [1] (setting [2]) was determined as 63.4 nM.

As a reminder, the EC50 is the concentration giving half of the maximal effect.
